Our source for the EC50 values is BindingDB's records for doi:10.1021/jm950932r (National Institute of Diabetes and Digestive and Kidney …, 1996).

By EC50 is commonly meant the concentration giving half of the maximal effect. High values mean a need for much substance, low ones an effect from little substance.

The nature of the experiment: Compound was evaluated for inhibition of hormone stimulated Adenylate cyclase activity in N18TG2 membranes.
Turning to `Cc1c(C(=O)c2ccc(N=C=S)c3ccccc23)c2ccccc2n1CCN1CCOCC1` [(4-Isothiocyanato-naphthalen-1-yl)-[2-methyl-1-(2-morpholin-4-yl-ethyl)-1H-indol-3-yl]-methanone], the EC50 was 3000 nM. The compound `Cc1c(C(=O)c2cccc3ccccc23)c2ccccc2n1CCN1CCOCC1` gave a half-maximal effective concentration (EC50) of 370 nM. With `O=C(c1cccc2ccccc12)c1cn(CCN2CCOCC2)c2ccccc12`, the EC50 was found to be 275 nM. Under `O=C(c1cccc2ccccc12)c1cn(CCN2CCOCC2)c2cc(N=C=S)ccc12` [[6-Isothiocyanato-1-(2-morpholin-4-yl-ethyl)-1H-indol-3-yl]-naphthalen-1-yl-methanone] stands 1100 nM.
